Source: the NIST ThermoML archive (doi:10.1016/j.jct.2017.03.006)
Numbers after ± are expanded uncertainties.

Assay: xn = mol fraction of the nth substance listed
Conditions: 273.15 K, Liquid, Vibrating tube method

Cc1ccc(C)c(C)c1 [1,2,4-trimethylbenzene] + CCC(C)O
mass density [kg/m3]
Conditions	x2 = 0	x2 = 0.1	x2 = 0.1989	x2 = 0.3011	x2 = 0.4002	x2 = 0.5001	x2 = 0.5997	x2 = 0.6999	x2 = 0.7999	x2 = 0.9
100 kPa	891.7 ± 0.7	885.9 ± 0.7	880.3 ± 0.7	874.4 ± 0.7	868.5 ± 0.7	862.2 ± 0.7	855.4 ± 0.7	847.7 ± 0.7	840.4 ± 0.7	831.5 ± 0.7
1000 kPa	892.3 ± 0.7	886.3 ± 0.7	880.7 ± 0.7	874.7 ± 0.7	868.8 ± 0.7	862.5 ± 0.7	855.9 ± 0.7	848.6 ± 0.7	840.9 ± 0.7	832.2 ± 0.7
2000 kPa	892.9 ± 0.7	886.9 ± 0.7	881.3 ± 0.7	875.4 ± 0.7	869.5 ± 0.7	863.2 ± 0.7	856.6 ± 0.7	849.3 ± 0.7	841.5 ± 0.7	832.9 ± 0.7
5000 kPa	894.6 ± 0.7	888.8 ± 0.7	883.2 ± 0.7	877.3 ± 0.7	871.4 ± 0.7	865.2 ± 0.7	858.5 ± 0.7	851.3 ± 0.7	843.5 ± 0.7	835 ± 0.7
10000 kPa	897.4 ± 0.7	891.8 ± 0.7	886.2 ± 0.7	880.4 ± 0.7	874.5 ± 0.7	868.3 ± 0.7	861.7 ± 0.7	854.5 ± 0.7	846.8 ± 0.7	838.2 ± 0.7
15000 kPa	900.2 ± 0.7	894.6 ± 0.7	889.1 ± 0.7	883.3 ± 0.7	877.4 ± 0.7	871.3 ± 0.7	864.7 ± 0.7	857.6 ± 0.7	849.9 ± 0.7	841.4 ± 0.7
20000 kPa	902.8 ± 0.7	897.4 ± 0.7	891.9 ± 0.7	886.1 ± 0.7	880.4 ± 0.7	874.2 ± 0.7	867.6 ± 0.7	860.5 ± 0.7	852.8 ± 0.7	844.4 ± 0.7
30000 kPa	908 ± 0.7	902.7 ± 0.7	897.3 ± 0.7	891.6 ± 0.7	885.8 ± 0.7	879.7 ± 0.7	873.3 ± 0.7	866.2 ± 0.7	858.6 ± 0.7	850.1 ± 0.7
40000 kPa	912.9 ± 0.7	907.8 ± 0.7	902.4 ± 0.7	896.7 ± 0.7	891.1 ± 0.7	885 ± 0.7	878.5 ± 0.7	871.5 ± 0.8	863.9 ± 0.8	855.6 ± 0.8
50000 kPa	917.5 ± 0.7	912.6 ± 0.7	907.2 ± 0.7	901.6 ± 0.7	896 ± 0.8	890 ± 0.8	883.6 ± 0.8	876.6 ± 0.8	869 ± 0.8	860.7 ± 0.8
60000 kPa	921.9 ± 0.7	–	–	–	–	–	–	–	–	–
